“Also recorded” adds a separate entry of the source. Read-outs that look alike come from different tables or passages of the source.
Legend:
[1] = test system: full-thickness skin wound models; assay: Granulation tissue maturation (H&E) in skin wound mouse model; assay type: in vivo, BALB/c female mice; settings: 6 days after administration, compared to the negative control group
Source text: (§1) Commercially available wound healing agents, Madecassol care ointment (Dongguk Pharmaceuticals, Korea) and Easyef cell regenerating ointment (Daewoong Pharmaceuticals) were used as positive control groups.
(§2) In detail, 7-week-old BALB/c female mice (DooYeol Biotech) were acclimated for 1 week, and then anesthetized by an intraperitoneal injection of a mixture of Ketamine and rumpun. The dorsal hair was removed using an electric razor and a hair removal cream (Veet). Povidone and 70% ethanol were used to disinfect the area from which the epidermis was to be removed, and a 5-mm biopsy punch was used to apply a full-thickness wound on both sides of the lower buttocks, while avoiding the spine of the mouse. To prevent spontaneous wound contraction by the superficial muscle of the mouse, a silicone ring with an outer diameter of 15 mm and an inner diameter of 8 mm was attached around the wounded area using suture threads.
(§3) Thereafter, to the wound site, phosphate buffered saline as the negative control was administered, and Madecassol care and Easyef cell regenerating ointments as the positive controls were administered. […] Specifically, each 30 μl of SP and each novel formulations were administered to the full-thickness wound once a day for 5 days.

[2] = Stability of SP at different storage temperatures (SP ELISA kit); assay type: physicochemical; settings: stored at 60° C., 37° C., RT, and 4° C. for 4 weeks
Experimental: Further, it was examined with respect to whether SP stability in each sample was maintained at different temperatures. […] The samples before storage were used as control groups. SP stability was analyzed using SP ELISA kit.

[3] = Stability of SP over time in cell growth media KGM and FGM (SP ELISA kit); assay type: physicochemical; settings: stored in KGM and FGM media, 0-24 hrs
Experimental: SP and SP of SP+HEC+polysorbate 80+sodium thiosulfate formulation were stored in cell growth media for human epithelial keratinocyte (HEK) culture (keratinocyte growth media; KGM) and human dermal fibroblast (HDF) culture (fibroblast growth media; FGM).
Each sample was taken out of the media after a predetermined period of time (0 hr, 3 hrs, 6 hrs, 12 hrs and 24 hrs), and diluted with phosphate buffered saline, and then the SP content in each sample was analyzed using SP ELISA kit.

[4] = test system: full-thickness skin wound models; assay: Epidermal regeneration effect (epidermal gaps, H&E) in skin wound mouse model; assay type: in vivo, BALB/c female mice; settings: 6 days after administration, compared to the control groups
Source text: as §1, §2, §3

[5] = test system: full-thickness skin wound models; assay: Wound size-reducing effect in skin wound mouse model; assay type: in vivo, BALB/c female mice; settings: 6 days after administration
Source text: as §1, §2
Thereafter, to the wound site, phosphate buffered saline as the negative control was administered, and Madecassol care and Easyef cell regenerating ointments as the positive controls were administered. […]
In detail, the reduced wound size was calculated as the size of wound area by analyzing an image of the wound at 0 day and 6 days after administration of the novel formulations. The size of wound area was quantified by using Photoshop.

[6] = test system: full-thickness skin wound models; assay: Angiogenic effect in skin wound mouse model; assay type: in vivo, BALB/c female mice; settings: biopsy 6 days after administration, FIG. 5
Source text: In detail, increased angiogenesis was confirmed by examining an image of angiogenesis on the skin tissue with the naked eye after biopsy of the skin tissue of the wound area 6 days after administration of the novel formulations.

[7] = test system: human dermal fibroblast cells; settings: for cell proliferation rate: 48 hours, MTT
Experimental: The cell proliferative effect of SP was analyzed by MTT assay.
In detail, 100 μl of a human dermal fibroblast cell suspension of 3×10^4 CFU/ml was put in a 96-well culture plate, and incubated for 24 hours. FGM medium (fibroblast growth medium; fibroblast basal medium containing hFGF-B, insulin, fetal bovine serum (FBS), gentamicin, and amphotericin-B) were removed, and then 180 μl of fresh FGM medium was dispensed into each well, and then 20 μl of SP diluted with phosphate buffered saline (PBS) was inoculated by varying its concentration (0.1, 1, 5, 10, 50, and 100 μg/ml).
Meanwhile, 20 μl of phosphate buffered saline was used as a negative control group. After inoculation, cells were incubated at 37° C. for 48 hours, and then the medium, SP, and negative control group were removed. The cells were washed with the phosphate buffered saline three times. 90 μl of FGM medium was mixed with 10 μl of MTT solution (0.5 mg/ml), and treated to each well, and allowed to react at 37° C. for 4 hours.
Finally, the cells were washed with the phosphate buffered saline, and stirred in 150 μl of isopropyl alcohol solution for 10 minutes, and absorbance at 570 nm was measured.

SMILES: CSCC[C@H](NC(=O)[C@H](CC(C)C)NC(=O)CNC(=O)[C@H](Cc1ccccc1)NC(=O)[C@H](Cc1ccccc1)NC(=O)[C@H](CCC(N)=O)NC(=O)[C@H](CCC(N)=O)NC(=O)[C@@H]1CCCN1C(=O)[C@H](CCCCN)NC(=O)[C@@H]1CCCN1C(=O)[C@@H](N)CCCNC(=N)N)C(N)=O [SP]
- granulation tissue maturation [1]: compact granulation tissue formation
- SP content according to temperature conditions (SP stability) [2]: lower SP content than the SP+HEC+polysorbate 80+sodium thiosulfate formulation; also recorded: changes in the SP content according to temperature changes
- SP content over time (SP stability) [3]: reduction in the SP content over time
- epidermal gaps [4]: about 60%
- size of the wound examined with the naked eye [5]: no significant difference in the wound size; also recorded: slight difference
- wound area (size of wound area quantified) ([5]; 30 μl once a day for 5 days, topical to wound): ≥ 40%
- angiogenesis on the skin tissue (naked eye) [6]: insignificant
- cytotoxicity [7]: without cytotoxicity
- cell proliferation rate ([7]; SP 5 μg/ml): ≥ 200%
- proliferation rate compared to the negative control group ([7]; SP 5 μg/ml, negative control phosphate buffered saline): ≥ 2.2 times
- cell proliferation rate ([7]; all concentration groups of 0.1 μg/ml to 100 μg/ml SP): ≥ 170%
